The source of these data is ChEMBL document CHEMBL1671646, “Identification, characterization, and azole-binding properties of Mycobacterium smegmatis CYP164A2, a homolog of ML2088, the sole cytochrome P450 gene of Mycobacterium leprae” (Antimicrob Agents Chemother, 2009).

A short description of test [1]: Binding affinity to Mycobacterium smegmatis ATCC 700084 CYP51 at pH7.5. Details: species or system Mycolicibacterium smegmatis.
The nature of test [2]: Binding affinity to Mycobacterium smegmatis ATCC 700084 CYP51 in presence of 0.5 M NaCl at pH7.5. Details: species or system Mycolicibacterium smegmatis.
The target of test [3] is T1, Mycocyclosin synthase (Mycobacterium tuberculosis, UniProt P9WPP7).
T1 sequence (P9WPP7 whole entry): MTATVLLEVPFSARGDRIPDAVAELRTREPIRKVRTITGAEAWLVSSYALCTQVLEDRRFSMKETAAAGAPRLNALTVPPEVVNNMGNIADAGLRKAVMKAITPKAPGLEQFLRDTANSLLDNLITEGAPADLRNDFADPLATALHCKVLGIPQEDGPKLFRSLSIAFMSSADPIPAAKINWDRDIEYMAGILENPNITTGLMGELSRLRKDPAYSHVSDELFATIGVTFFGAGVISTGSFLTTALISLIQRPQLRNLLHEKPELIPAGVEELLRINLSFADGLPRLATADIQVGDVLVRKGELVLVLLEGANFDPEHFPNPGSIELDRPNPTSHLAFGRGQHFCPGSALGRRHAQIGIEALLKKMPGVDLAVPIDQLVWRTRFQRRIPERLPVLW
Briefly: Binding affinity to Mycobacterium tuberculosis CYP121.

Test [4] is described as follows: Binding affinity to Mycobacterium smegmatis ATCC 700084 CYP164A2 in presence of 0.5 M NaCl at pH7.5. Details: species or system Mycolicibacterium smegmatis.
Test [5] can be described thus: Binding affinity to Mycobacterium smegmatis ATCC 700084 CYP164A2 at pH7.5. Details: species or system Mycolicibacterium smegmatis.
Test [6] deals with Mycolicibacterium smegmatis. In words: Selectivity ratio of Kd for Mycobacterium smegmatis ATCC 700084 CYP164A2 in presence of 0.5 M NaCl to Kd for Mycobacterium smegmatis ATCC 700084 CYP164A2.
Test [7] concerns the target T2, Lanosterol 14-alpha demethylase (Bos taurus, UniProt Q4PJW3).
T2 sequence (Q4PJW3 whole entry): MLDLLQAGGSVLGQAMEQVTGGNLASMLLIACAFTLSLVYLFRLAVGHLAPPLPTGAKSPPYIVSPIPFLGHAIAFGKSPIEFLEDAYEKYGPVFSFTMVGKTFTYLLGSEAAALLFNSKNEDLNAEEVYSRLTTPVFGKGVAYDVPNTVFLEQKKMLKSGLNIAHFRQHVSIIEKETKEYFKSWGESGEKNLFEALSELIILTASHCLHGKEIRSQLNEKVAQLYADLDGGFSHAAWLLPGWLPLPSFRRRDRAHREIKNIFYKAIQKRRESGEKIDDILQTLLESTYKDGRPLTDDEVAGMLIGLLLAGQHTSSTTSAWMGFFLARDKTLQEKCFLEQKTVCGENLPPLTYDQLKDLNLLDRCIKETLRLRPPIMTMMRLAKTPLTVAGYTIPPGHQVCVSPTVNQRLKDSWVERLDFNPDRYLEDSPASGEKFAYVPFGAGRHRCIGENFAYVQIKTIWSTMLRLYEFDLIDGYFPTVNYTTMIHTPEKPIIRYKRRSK
In words: Binding affinity to bovine CYP51.

Test [8] concerns the target T3, Cytochrome P450 130 (Mycobacterium tuberculosis, UniProt P9WPN5).
T3 sequence (P9WPN5 whole entry): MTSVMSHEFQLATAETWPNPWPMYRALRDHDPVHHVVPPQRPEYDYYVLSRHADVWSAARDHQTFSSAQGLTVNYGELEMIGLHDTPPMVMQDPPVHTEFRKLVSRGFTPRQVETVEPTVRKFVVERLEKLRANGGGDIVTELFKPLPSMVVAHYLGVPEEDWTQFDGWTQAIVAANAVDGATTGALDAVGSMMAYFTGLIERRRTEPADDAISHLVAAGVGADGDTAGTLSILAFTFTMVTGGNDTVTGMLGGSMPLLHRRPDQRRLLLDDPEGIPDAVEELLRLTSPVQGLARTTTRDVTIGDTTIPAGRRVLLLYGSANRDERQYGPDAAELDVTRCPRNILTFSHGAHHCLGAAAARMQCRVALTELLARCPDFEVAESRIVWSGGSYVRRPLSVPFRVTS
Briefly: Binding affinity to Mycobacterium tuberculosis CYP130.

Test [9] in a line: Binding affinity to Mycobacterium smegmatis ATCC 700084 CYP164A2 in presence of 0.2 M NaCl. Details: species or system Mycolicibacterium smegmatis.
Test [10] in a line: Binding affinity to Mycobacterium smegmatis ATCC 700084 CYP164A2 in presence of 0.1 M NaCl. Details: species or system Mycolicibacterium smegmatis.
Test [11] is described as follows: Binding affinity to Mycobacterium smegmatis ATCC 700084 CYP164A2 in presence of 0.3 M NaCl. Details: species or system Mycolicibacterium smegmatis.
Test [12] can be described thus: Binding affinity to Mycobacterium smegmatis ATCC 700084 CYP164A2 in presence of 2 M NaCl. Details: species or system Mycolicibacterium smegmatis.
Test [13] can be described thus: Binding affinity to Mycobacterium smegmatis ATCC 700084 CYP164A2 in presence of 1 M NaCl. Details: species or system Mycolicibacterium smegmatis.
For test [14], the system named is Mycolicibacterium smegmatis. Briefly: Selectivity ratio, ratio of Kd for Mycobacterium smegmatis ATCC 700084 CYP164A2 in presence of 0.3 M NaCl to Kd for Mycobacterium smegmatis ATCC 700084 CYP164A2.
Test [15] is described as follows: Binding affinity to Mycobacterium smegmatis ATCC 700084 CYP164A2 in presence of 0.05 M NaCl. Details: species or system Mycolicibacterium smegmatis.
Test [16] deals with T4, Sterol 14alpha-demethylase (Mycobacterium tuberculosis, UniProt P9WPP9).
T4 sequence (P9WPP9 whole entry): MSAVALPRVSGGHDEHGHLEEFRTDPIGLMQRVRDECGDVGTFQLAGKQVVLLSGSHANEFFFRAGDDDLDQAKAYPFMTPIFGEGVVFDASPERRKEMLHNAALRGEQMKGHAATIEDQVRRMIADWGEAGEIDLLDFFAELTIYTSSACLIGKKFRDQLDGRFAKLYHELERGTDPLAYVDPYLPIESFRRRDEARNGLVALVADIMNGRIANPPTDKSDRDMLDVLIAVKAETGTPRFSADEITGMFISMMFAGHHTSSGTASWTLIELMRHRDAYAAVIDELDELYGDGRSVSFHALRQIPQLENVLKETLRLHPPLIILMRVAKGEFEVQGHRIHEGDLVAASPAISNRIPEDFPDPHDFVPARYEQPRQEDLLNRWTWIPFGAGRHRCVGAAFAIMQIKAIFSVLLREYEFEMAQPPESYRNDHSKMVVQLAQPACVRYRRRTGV
Description: Binding affinity to Mycobacterium tuberculosis CYP51

The subject of test [17] is Mycolicibacterium smegmatis. In words: Selectivity ratio, ratio of Kd for Mycobacterium smegmatis ATCC 700084 CYP164A2 to Kd for Mycobacterium smegmatis ATCC 700084 CYP51.
Test [18] can be described thus: Selectivity ratio, ratio of Kd for Mycobacterium smegmatis ATCC 700084 CYP164A2 to Kd for Mycobacterium tuberculosis CYP121.

For the compound `OC(Cn1cncn1)(Cn1cncn1)c1ccc(F)cc1F` [FLUCONAZOLE], the values for the dissociation constant Kd in test [1], in [2] and in [3] were 19.5 µM, 5.94 µM and 6 µM, respectively.

Turning to `CC(=O)N1CCN(c2ccc(OCC3COC(Cn4ccnc4)(c4ccc(Cl)cc4Cl)O3)cc2)CC1` (stereo not given) [KETOCONAZOLE], the Kd in test [4] (read-out: Kd) was found to be 7.48 µM; in test [5], 5.69 µM; in test [1] it was 7.45 µM; in [2], 4.59 µM; in test [7], 0.32 µM. Also, in [6], the Ratio was 3.

Consider `Clc1ccccc1C(c1ccccc1)(c1ccccc1)n1ccnc1` [CLOTRIMAZOLE], for which the Kd came to 13.3 µM in test [8]; 2.66 µM in test [4] (read-out: Kd); 1.2 µM in test [5]; 0.62 µM in [1]; 0.43 µM in test [2].

Take `C[C@@H](c1ncncc1F)[C@](O)(Cn1cncn1)c1ccc(F)cc1F` [VORICONAZOLE]: the dissociation constant Kd in [9] is 20.1 µM; in [4] (read-out: Kd), 19.7 µM; in test [10], 17.9 µM; in test [11], 34 µM; in test [5], 3.24 µM; in [12], 13.2 µM. Besides, the Kd in test [1] came to 5.94 µM; in test [13], 9.85 µM; in [15], 8.36 µM; in [2] it was 4.57 µM. The Ratio in test [6] is 3; in [14], 12.

On to `Clc1ccc(COC(Cn2ccnc2)c2ccc(Cl)cc2Cl)c(Cl)c1` (stereo not given) [MICONAZOLE], for which the equilibrium dissociation constant (Kd) in test [16] was 0.2 µM; in test [4] (read-out: Kd), 5.57 µM; in test [5] it was 2.48 µM; in test [1], 1.16 µM; in [2] it was 0.94 µM. Further, the Ratio in test [17] was 2; in test [18], 17.

Turning to `Clc1ccc(COC(Cn2ccnc2)c2ccc(Cl)cc2Cl)cc1` (stereo not given) [ECONAZOLE], the dissociation constant Kd in test [16] is 0.2 µM; in test [4], 9.31 µM; in test [5] it was 2.52 µM; in [1], 0.88 µM; in test [2], 1.66 µM. Moreover, the Ratio worked out at 2 in [17] and 17 in [18].

As for `CCC(C)n1ncn(-c2ccc(N3CCN(c4ccc(OCC5COC(Cn6cncn6)(c6ccc(Cl)cc6Cl)O5)cc4)CC3)cc2)c1=O` (stereo not given) [ITRACONAZOLE], the Kd in [4] (read-out: Kd) amounted to 1.11 µM; in [5], 0.78 µM; in test [1], 1.26 µM; in [2], 3 µM. Besides, the Ratio in test [6] is 3.
